# Assay results reported in patent publication US7667054B2, “Cytotoxic agents comprising new taxanes” (priority 2004, dated 2010).
# How the values were obtained:
# [1] = system: COLO 205 cells; experiment: in vitro potency of huC242-Taxoid conjugate and free taxoid, WST-8 assay, antigen positive cells; assay type: cell-based; settings: human colon cancer COLO 205 cells (antigen positive), 4 days
# Experimental: (§1) Samples of free taxoid or huC242-Taxoid conjugate were added to a 96-well flat bottomed tissue culture plate and titrated using serial dilutions ranging from 1×10^−12 M to 3×10^−7 M. Human colon tumor cells, COLO 205, or human melanoma cells, A-375, were added to the wells in such a way that there were triplicate samples for each drug concentration for each cell line. The plates were incubated at 37° C. in an atmosphere of 5% CO2 for 4 days.
# (§2) At the end of the incubation period, 20 μl of the tetrazolium reagent WST-8 (2-(2-methoxy-nitrophenyl)-3-(4-nitrophenyl)-5-(2,4-disulfophenyl)-2-tetrazolium, monosodium salt]) was added to each well, and the plates were returned to the incubator for 2 hours. The absorbance in each well of the plates was then measured using the Molecular Devices plate reader at 450 nm. Surviving fraction of cells at each concentration of taxoid or conjugate are plotted in FIGS. 2a, b.
# [2] = system: A-375 cells; experiment: in vitro potency of huC242-Taxoid conjugate and free taxoid, WST-8 assay, antigen negative cells; assay type: cell-based, human; settings: for IC50: human melanoma A-375 cells (antigen negative), 4 days, WST-8
# Experimental: as §1, §2
# [3] = system: A549; experiment: activity of the taxoids on A549 (procedure of Riou, Naudin and Lavelle); assay type: cell-based; settings: Homo sapiens, A549, read-out: A549
# Experimental: (§3) The activity of the compounds of the present invention were determined following the proceeding described by Riou, Naudin and Lavelle in Biochemical and Biophysical Research Communications; Vol. 187, No1, 1992, p 164-170.
# [4] = system: MCF7; experiment: activity of the taxoids on MCF7 (procedure of Riou, Naudin and Lavelle); assay type: cell-based; settings: Homo sapiens, MCF7, read-out: MCF7
# Experimental: as §3
molecule,measurement,setting,value
"COc1ccc(OC)c(C(=O)O[C@H]2[C@@H]3[C@]4(OC(C)=O)CO[C@@H]4C[C@H]4O[C@@H]([C@H](OC(=O)NCC(C)(C)SSC)C5=C(C)[C@@H](OC(=O)[C@H](O)[C@@H](NC(=O)OC(C)(C)C)c6ccco6)C[C@]2(O)C5(C)C)[C@@]34C)c1 [IGT-15-075, 7α,9α-epoxy-3′-dephenyl-3′-(2-furyl)-2-debenzoyl-2-(2,5-dimethoxybenzoyl)-10-(N-2,2-dimethyl-2-methyidithio-ethylcarbamoyl)-docetaxel]",IC50,[1]; 96 h,~0.1 nM
same,IC50,[2]; 96 h,~0.1 nM
COc1ccc(OC)c(C(=O)O[C@H]2[C@@H]3[C@]4(OC(C)=O)CO[C@@H]4C[C@H]4O[C@@H]([C@H](OC(=O)N(C)C)C5=C(C)[C@@H](OC(=O)[C@H](O)[C@H](C=C(C)C)NC(=O)OC(C)(C)C)C[C@]2(O)C5(C)C)[C@@]34C)c1 [IGT-15-014],IC50,[3],0.03 nM
same,IC50,[4],0.024 nM
"huC242-taxoid (conjugate, chains of the INN, looked up, taxoid payload conjugate) VH: QVQLVQSGAEVKKPGETVKISCKASDYTFTYYGMNWVKQAPGQGLKWMGWIDTTTGEPTYAQKFQGRIAFSLETSASTAYLQIKSLKSEDTATYFCARRGPYNWYFDVWGQGTTVTVSS VL: DIVMTQSPLSVPVTPGEPVSISCRSSKSLLHSNGNTYLYWFLQRPGQSPQLLIYRMSNLVSGVPDRFSGSGSGTAFTLRISRVEAEDVGVYYCLQHLEYPFTFGPGTKLELK",IC50,[1],0.08 nM
same,"fold less sensitive, antigen negative cells vs COLO 205",[2]; A-375 versus COLO 205,about 150 fold
same,IC50,[2],12 nM
